The subject of assay [1] is MET3P-ERG1 construct. As to conditions: 0.5 mM methionine; growth monitored between 16 and 24 hours, OD 595 nm; FIG. 9.
Description: Cells were diluted from these cultures to 757,002 cfu/ml in SD+His medium. 35 μl of the diluted cells were dispensed into wells of a 384-well plate containing 8 μl of 10.26% DMSO. […] Cell growth was monitored between 16 and 24 hours by reading the optical density at 595 nm.
In assay [2] the test system is MET3 promoter-CaERG1 cells. The experiment in a line: Drug hypersensitivity whole cell assay, 384-well plate: MET3 promoter-CaERG1 cells with and without methionine. It is filed as cell-based, Candida albicans. To be noted: 0.05 mM methionine, 18 hours at 35° C, OD 595 nm, FIG. 10. On the procedure:
In order to determine if essential polynucleotide products could be reduced in fungal cells resulting in drug hypersensitivity, a high throughput whole cell assay was designed. The known C. albicans essential polynucleotide corresponding ERG1 polynucleotide in S. cervisiae was tested. CaERG 1 codes for squaline epoxidase and is known to be inhibited by terbinafine. The first polynucleotide copy was disrupted as described above and the second polynucleotide copy was modified by promoter swapping with MET3 promoter, also as described above.
The optimal cell density needed to control cell growth in a 384-well plate within the log phase after 18 hours incubation at 35° C. was first determined. […] At different time intervals, the plate was withdrawn from the incubator and the cell growth was determined by reading absorbance at 590 nm on a Perkin Elmer 7000 machine.
In order to assess whether cells containing the ERG1−MET promoter construct would display hypersensitivity to terbinafine upon the addition of methionine in comparison to cells for which no methionine was added, cells were grown in the 384 well-plate as described above. […] After 18 hours of incubation, the OD readings were taken of the plates to measure cell growth (595 nm). […]

The subject of assay [3] is MET3P-ERG1 construct. The experiment in a line: Sensitivity of the MET3P-ERG1 construct to antifungal drugs (MICs, 96-well format plate). As to conditions: for MIC: Candida albicans, at 20 hrs, MET3P-ERG1 construct; for sensitivity to the drug altered by the presence of methionine: drugs not known to be inhibitors of the CaERG1 product. It is filed as cell-based, Candida albicans. On the procedure: In order to assess whether cells containing the ERG1−MET promoter construct would display hypersensitivity to terbinafine upon the addition of methionine in comparison to cells for which no methionine was added, cells were grown in the 384 well-plate as described above. A final concentration of 0.05 mM methinone was added to wells within one plate of cells and a control plate, in which SD+His broth was added in lieu of methionine was added to a second plate. 8 μl of various concentrations of terbinafine in 10.26% DMSO was added to both the control and test plates. The concentrations of terbinafine added to different wells ranged from 163 μg/ml to 0.02 μg/ml. […] After the addition of this inhibitor, both the control and experimental plates were incubated at 35° C. After 18 hours of incubation, the OD readings were taken of the plates to measure cell growth (595 nm). […] Increased sensitivity of cells containing the ERG1−MET3 was confirmed in a separate experiment using a 96-well format plate.
Furthermore, results of additional experiments conducted with the drugs sordarin and fluconazole which are not known to be inhibitors of the CaERG1 polynucleotide product confirm that sensitivity to these drugs is not altered by the presence of methionine.

For assay [4], the system named is ergosterol biosynthetic pathway in strain caerg1Δ/PMET3-CaERG1. The experiment in a line: Incorporation of labeled acetate into sterols (TLC, scintillation counting), control strain. The class given is cell-based, Candida albicans. As to conditions: FIG. 22A, lanes 1 and 2; 90 minute induction period. On the procedure:
(§1) Overnight cultures were diluted into fresh SD+histidine (His) broth and grown at 30° C. until logarithmic growth was established. Cultures were harvested by centrifugation. Cells were then separated into tubes at a final density of 0.25 OD600 containing either fresh SD+His broth or SD+His broth containing 5 mM methionine (Met) and 2.5 mM cysteine (Cys). At the end of either a 0.75, 1.5, 3 or 4.5 hour incubation period, the OD600 values of each tube were measured and cultures were adjusted to a density of 0.25 OD600 units per ml (2 mls per tube). Cultures were then pulsed with 2 μCi/tube of [^3H]-acetic acid for 60 minutes.
(§2) At the end of the labeling period, cells were pelleted and rinsed 1× with medium. The washed pellet was resuspended with 1 ml of 0.1 N HCl, transferred to glass screw-capped tubes, and incubated for 5 minutes at 85° C. […]
(§3) Dried samples were disolved in petroleum ether and spotted onto a 20 cm×20 cm silica gel 60 TLC plate. […] The location of radiolabeled spots on the TLC plate was determined by matching the exposed spots on the autoradiogram.
(§4) In order to quantitate the radioactivity associated with the ergosterol pathway products, the silica gel corresponding to the exposed spots was excised from the plate and mixed with 0.5 ml of water, then mixed with 5 mls of scintillation cocktail prior to scintillation counting. […]

The subject of assay [5] is ergosterol biosynthetic pathway in strain fcg5Δ/PMET3-FCG5. The experiment in a line: Incorporation of labeled acetate into sterols (TLC, scintillation counting), test strain. As to conditions: FIG. 22B; majority of the counts trapped in squalene. It is filed as cell-based, Candida albicans. As to the method:
as §1, §2, §3, §4

Values after ≈ are worked out from the molar mass of the structure shown.

Regarding `CSCC[C@H](N)C(=O)O` [methionine], the “reduction of cell growth” value in the assay with MET3P-ERG1 construct [1] is recorded as “approximately 50%”.

Broadly, the MIC is the lowest concentration that inhibits growth of the organism. In the case of `CN(C/C=C/C#CC(C)(C)C)Cc1cccc2ccccc12` [Terbinafine], the “increase in sensitivity in the presence of methionine comparing to the no methionine control” value in assay [2] is 4-8 fold. Besides, the “increase in sensitivity when promoter activity was down regulated by the presence of methionine” value with MET3P-ERG1 construct [3] (96-well format plate, Table 7) is on record as 16-32 fold. Besides, in the assay with MET3P-ERG1 construct [3] (presence of methionine), the MIC stood at 0.5 µg/mL. For the same compound, the “effect on ergosterol biosynthesis (TLC autoradiogram)” value in assay [4] is reported as “a block in ergosterol biosynthesis at squalene”. The “effect on incorporation of radiolabelled acetate into ergosterol (TLC autoradiogram)” value in assay [5] is reported as “blocked the incorporation of radiolabelled acetate into ergosterol”.

As for `CO[C@H]1[C@@H](O)[C@H](O)[C@H](OC[C@@]23C[C@@H]4[C@H](C)CC[C@H]4[C@@]4(C=O)CC2C=C(C(C)C)[C@@]34C(=O)O)O[C@@H]1C` [Sordarin], the MIC against MET3P-ERG1 construct [3] (absence of methionine) was 0.5 µg/mL (≈ 1.02 µM); with MET3P-ERG1 construct [3] (presence of methionine), 0.5 µg/mL. For the same compound, the “sensitivity to the drug altered by the presence of methionine” value in the assay on MET3P-ERG1 construct [3] was “not altered”.

On to `OC(Cn1cncn1)(Cn1cncn1)c1ccc(F)cc1F` [Fluconazole], for which the minimum inhibitory concentration (MIC) came to 1 µg/mL (≈ 3.27 µM) with MET3P-ERG1 construct [3] (absence of methionine) and 1 µg/mL in the assay on MET3P-ERG1 construct [3] (presence of methionine). Also, the “sensitivity to the drug altered by the presence of methionine” value with MET3P-ERG1 construct [3] is listed as “not altered”.

Values taken from patent publication US7442532B2, “Essential fungal CaYLR100w polypeptides, and methods of use” (Bristol-Myers Squibb Company, priority 2003, dated 2008).
